# Experimental data: patent publication US20070179112A1, “POLYMERIC NUCLEOSIDE PRODRUGS” (Reliable Biopharmaceutical, Inc., priority 2000, published 2007)
# Key:
# [1] = test system: snake phosphodiesterase; assay: Cleavage of oligo 6 by snake phosphodiesterase (Boehringer Mannheim), monitored by CGE; type: in vitro ADME, crotalus durissus; settings: 0.5 μl enzyme in water (total volume 25 μl)
# Description: Examples 13-22 describe cleavage of the Oligos 1-7. All cleavage experiments were performed at room temperature. The concentrations of the nucleases were reduced to slow down the rates of cleavage for the homoploymers. See S. Agrawal, in Delivery Strategies for Antisense Oligonucleotide Therapeutics, 275, 462-473, Ed. S. Akhtar, CAC Press, 1995. The Capillary Gel Electrophoresis equipment used for the studies were the Beckmman PAC/E 2200 system with Beckman Coulter E-CAP DNA capillary (#477477, […], 65 cm [27 cm effective length] loaded with Beckman Coulter E-CAP ssDNA 100-R gel and run using the Tris-Borate-Urea buffer prepared according to Beckman procedures. The CGE running conditions were as follows. The injection was done for 2 seconds at 10 kV followed by electro-osmotic flow with buffer for 30-60 min as needed at 10 kV. The cleavage reactions were monitored in most cases after 1, 2, 4, 5, 7, 10, 12, 15, 17 and 20 hrs. Some reactions were monitored after 5, 10 minutes and others after 72 and 100 hrs. The SVPDE is obtained from two different species of snakes, crotalus adamanteus and crotalus durissus. It has been observed that there is no variation in the cleavage experiments as a result of this change. […]
# [2] = test system: Snake Venom PhosphoDiEsterase, SVPDE (Phosphodiesterase I Type II)
substance,measurement,setting,value
"[dC-pO] 14-dC-OH [Oligo 6, reference compound]",cleavage/degradation observed by CGE,[1]; after 30 minutes,a series of shorter oligomers due to partial cleavage was observed
same,cleavage/degradation observed by CGE,[1]; after 2 hours,no full length oligonucleotide was observed
same,digestion,[2],more than 90%
"polycylidilic acid [Oligo 7, reference compound]",digestion,[2],more than 90%
([cytarabine-pO]3-[2′O-methylcytidine-pO]2)3 [Oligo 2],full length oligo cleaved (estimated),[2],more than 50%
same,ratio of 2′O-MeCMP to dCMP reached as the cleavage progressed,[2],5
same,ratio of araCMP to dCMP reached as the cleavage progressed,[2],6
[2′O-methylcytarabine-pO] 15-dC [Oligo 5],oligonucleotide degraded,[2],more than 80%
(cytarabine-pO)15-dC [Oligo 1],cleavage/degradation observed by CGE,[2],minor cleavage
same,oligonucleotide degraded to monomers,[2],~20%
same,oligonucleotide degraded to oligomers of smaller lengths,[2],~50%
same,ratio of araCMP to dCMP reached as the cleavage progressed,[2],13
same,"ratio of araCMP to dCMP, starting value as the cleavage progressed",[2],3
